Experimental data taken from US20160235727A1, “NOVEL PYRROLIDINE DERIVED BETA 3 ADRENERGIC RECEPTOR AGONISTS” (Merck Sharp & Dohme Corp., priority 2013, published 2016).
pEC50: −log10 of the molar value.

Biological target: T1, human β3-AR (Homo sapiens, UniProt P13945)
T1 construct: expressed in transfected cells; host or cells: CHO (Chinese hamster ovary) cells, stably transfected
Test: cAMP functional agonist assay (LANCE TR-FRET) in CHO cells expressing cloned human β3-AR
Type: cell-based
Details: for pEC50: CHO cells stably expressing cloned human β3-adrenoceptor, cAMP release, read-out: Human β3-AR Agonism EC50; for Fold drop in potency vs. 2-chloropyridine analog: EC50 of comparative example divided by EC50 of corresponding 2-chloropyridine compound; for Human β3-AR Agonist Activity (%): percent maximum activation relative to isoproterenol
Experimental: The ability of compounds to activate the human β3-AR receptor was measured using a CHO cell line stably expressing the cloned human β1-, β2-, and β3-adrenoceptors (β-AR). […] To quantify the amount of cAMP released following β-AR activation, the LANCE cAMP kit (Perking Elmer), a time-resolved fluorescence resonance energy transfer immunoassay, was used. Compounds were serially diluted in DMSO and an aliquot added to either 384-well or 96-well micro titer plates in assay buffer (5 mM HEPES, 0.1% BSA in Hank's Balanced Salt Solution). […] Following 30 min incubation at room temperature, the cells were lysed by the addition of LANCE detection buffer which contained a europium-labeled cAMP tracer. Fluorescence was measured following one hour incubation at room temperature using a Perking Elmer Envision plate reader, exciting at 340 nm and measuring emission at 615 nm and 665 nm. For each assay, a cAMP standard curve was included and used to convert fluorescence readings directly to cAMP amounts. The values were then normalized to isoproterenol, a known full agonist of β-AR, which was titrated in every assay and the EC50 determined using a custom in-house data analysis package. Along with EC50, the percent maximum activation relative to isoproterenol is reported.
The cAMP production is measured using a homogenous time-resolved fluorescence resonance energy transfer immunoassay (LANCE™, Perkin Elmer) according to the manufacture's instructions. Chinese hamster ovary (CHO) cells, stably transfected with the cloned β-adrenergic receptor (β1, β2 or β3) are harvested after 3 days of subculturing. Harvesting of cells is done with Enzyme-free Dissociation Media (Specialty Media). Cells are then counted and resuspended in assay buffer (Hank's Balanced salt solution supplemented with 5 mM HEPES, […]) containing a phosphodiesterase inhibitor (IBMX, 0.6 mM). The reaction is initiated by mixing 6,000 cells in 6 μL with 6 μL Alexa Fluor labeled cAMP antibody (LANCE™ kit) which is then added to an assay well containing 12 μL of compound (diluted in assay buffer to 2× final concentration). The reaction proceeds for 30 minutes at RT and is terminated by the addition of 24 ul detection buffer (LANCE™ kit). The assay plate is then incubated for 1 h at RT and time-resolved fluorescence measured on a Perkin Elmer Envision reader or equivalent. The unknown cAMP level is determined by comparing fluorescence levels to a cAMP standard curve.
The non-selective, full agonist β-adrenergic ligand isoproterenol is used at all three receptors to determine maximal stimulation. […] Data are analyzed using Microsoft Excel and Graphpad Prism or an internally developed data analysis software package. […]

T1 sequence (P13945 whole entry): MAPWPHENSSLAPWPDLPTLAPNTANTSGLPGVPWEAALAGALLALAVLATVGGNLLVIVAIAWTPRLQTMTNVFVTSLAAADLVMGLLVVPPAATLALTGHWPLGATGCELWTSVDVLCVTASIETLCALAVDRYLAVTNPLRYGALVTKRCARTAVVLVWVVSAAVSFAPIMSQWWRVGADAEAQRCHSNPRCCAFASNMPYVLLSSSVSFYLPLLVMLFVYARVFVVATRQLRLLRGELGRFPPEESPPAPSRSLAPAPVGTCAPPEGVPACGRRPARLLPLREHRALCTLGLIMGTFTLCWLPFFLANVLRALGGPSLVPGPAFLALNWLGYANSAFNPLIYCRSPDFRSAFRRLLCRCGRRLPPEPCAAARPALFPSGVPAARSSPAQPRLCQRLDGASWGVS

Row | SMILES | pEC50 | Fold drop in potency vs. 2-chloropyridine analog [fold] | Human β3-AR Agonist Activity (%)
1 | COC(C)CN(C)C(=O)c1ccc(C[C@@H]2CC[C@H]([C@H](O)c3ccccc3)N2)cc1 (mixture of isomers) [Example 2-B, 4-(((2S,5R)-5-((R)-hydroxy(phenyl)methyl)pyrrolidin-2-yl)methyl)-N-(2-methoxypropyl)-N-methylbenzamide] | 6.77 | 1.4 | 94
2 | COCCN(C)C(=O)c1ccc(C[C@@H]2CC[C@H]([C@H](O)c3ccc(Cl)nc3)N2)cc1 [Example 1-A] | 7.02 | – | 100
3 | COC(CN(C)C(=O)c1ccc(C[C@@H]2CC[C@H]([C@H](O)c3ccc(Cl)nc3)N2)cc1)c1cccc(=O)[nH]1 (stereo partly drawn) [Example 3-A, 4-(((2S,5R)-5-((R)-(6-chloropyridin-3-yl)(hydroxy)methyl)pyrrolidin-2-yl)methyl)-N-(2-methoxy-2-(6-oxo-1,6-dihydropyridin-2-yl)ethyl)-N-methylbenzamide] | 6.69 | – | 81
4 | COC(CN(C)C(=O)c1ccc(C[C@@H]2CC[C@H]([C@H](O)c3ccccc3)N2)cc1)c1cccc(=O)[nH]1 (stereo partly drawn) [Example 3-B, 4-(((2S,5R)-5-((R)-hydroxy(phenyl)methyl)pyrrolidin-2-yl)methyl)-N-(2-methoxy-2-(6-oxo-1,6-dihydropyridin-2-yl)ethyl)-N-methylbenzamide] | 6.39 | 2.0 | 101
5 | Cc1cc(CN(C)C(=O)c2ccc(C[C@@H]3CC[C@H]([C@H](O)c4ccccc4)N3)cc2)n[nH]1 [Example 4-B, 4-(((2S,5R)-5-((R)-hydroxy(phenyl)methyl)pyrrolidin-2-yl)methyl)-N-methyl-N-((5-methyl-1H-pyrazol-3-yl)methyl)benzamide] | 7.85 | 2.6 | 108
6 | Cc1cc(CN(C)C(=O)c2ccc(C[C@@H]3CC[C@H]([C@H](O)c4ccc(OC(F)F)cc4)N3)cc2)n[nH]1 [Example 4-E, 4-(((2S,5R)-5-((R)-(4-(difluoromethoxy)phenyl)(hydroxy)methyl)pyrrolidin-2-yl)methyl)-N-methyl-N-((5-methyl-1H-pyrazol-3-yl)methyl)benzamide] | 7.05 | 16.4 | 79
7 | Cc1cc(CN(C)C(=O)c2ccc(C[C@@H]3CC[C@H]([C@H](O)c4ccc(F)cc4)N3)cc2)n[nH]1 [Example 4-F, 4-(((2S,5R)-5-((R)-(4-fluorophenyl)(hydroxy)methyl)pyrrolidin-2-yl)methyl)-N-methyl-N-((5-methyl-1H-pyrazol-3-yl)methyl)benzamide] | 7.72 | 3.5 | 105
8 | Cc1cc(CN(C)C(=O)c2ccc(C[C@@H]3CC[C@H]([C@H](O)c4ccc(F)nc4)N3)cc2)n[nH]1 [Example 4-Q, 4-(((2S,5R)-5-((R)-(6-fluoropyridin-3-yl)(hydroxy)methyl)pyrrolidin-2-yl)methyl)-N-methyl-N-((5-methyl-1H-pyrazol-3-yl)methyl)benzamide] | 7.11 | 14.4 | 106
9 | Cc1cc(CN(C)C(=O)c2ccc(C[C@@H]3CC[C@H]([C@H](O)c4cncc(F)c4)N3)cc2)[nH]n1 [Example 4-R, 4-(((2S,5R)-5-((R)-(5-fluoropyridin-3-yl)(hydroxy)methyl)pyrrolidin-2-yl)methyl)-N-methyl-N-((5-methyl-1H-pyrazol-3-yl)methyl)benzamide] | 7.35 | 8.3 | 101
10 | Cc1cc(C(Cc2ccccc2)N(C)C(=O)c2ccc(C[C@@H]3CC[C@H]([C@H](O)c4cccnc4)N3)cc2)[nH]n1 (stereo partly drawn) [Example 6-H, 4-(((2S,5R)-5-((R)-hydroxy(pyridin-3-yl)methyl)pyrrolidin-2-yl)methyl)-N-methyl-N-(1-(5-methyl-1H-pyrazol-3-yl)-2-phenylethyl)benzamide] | 8.15 | 2.4 | 92
11 | CC(C)c1cc(CN(C)C(=O)c2ccc(C[C@@H]3CC[C@H]([C@H](O)c4ccc(Cl)nc4)N3)cc2)n[nH]1 [Example 7-A, 4-(((2S,5R)-5-((R)-(6-chloropyridin-3-yl)(hydroxy)methyl)pyrrolidin-2-yl)methyl)-N-((5-isopropyl-1H-pyrazol-3-yl)methyl)-N-methylbenzamide] | 7.23 | – | 95

More lines, in order of rising pEC50, values ahead:

Row | pEC50 | Fold drop in potency vs. 2-chloropyridine analog [fold] | Human β3-AR Agonist Activity (%) | SMILES
12 | 6.35 | 4.6 | 93 | COCCN(C)C(=O)c1ccc(C[C@@H]2CC[C@H]([C@H](O)c3ccccc3)N2)cc1 [Example 1-B, 4-(((2S,5R)-5-((R)-hydroxy(phenyl)methyl)pyrrolidin-2-yl)methyl)-N-(2-methoxyethyl)-N-methylbenzamide]
13 | 6.93 | – | 86 | COC(C)CN(C)C(=O)c1ccc(C[C@@H]2CC[C@H]([C@H](O)c3ccc(Cl)nc3)N2)cc1 (stereo partly drawn) [Example 2-A, 4-(((2S,5R)-5-((R)-(6-chloropyridin-3-yl)(hydroxy)methyl)pyrrolidin-2-yl)methyl)-N-(2-methoxypropyl)-N-methylbenzamide]
14 | 8.30 | – | 104 | Cc1cc(CN(C)C(=O)c2ccc(C[C@@H]3CC[C@H]([C@H](O)c4ccc(Cl)nc4)N3)cc2)n[nH]1 [Example 4-A, 4-(((2S,5R)-5-((R)-(6-chloropyridin-3-yl)(hydroxy)methyl)pyrrolidin-2-yl)methyl)-N-methyl-N-((5-methyl-1H-pyrazol-3-yl)methyl)benzamide]
15 | 8.40 | 0.8 | 95 | Cc1cc(CN(C)C(=O)c2ccc(C[C@@H]3CC[C@H]([C@H](O)c4ccc(Cl)cc4)N3)cc2)n[nH]1 [Example 4-G, 4-(((2S,5R)-5-((R)-(4-chlorophenyl)(hydroxy)methyl)pyrrolidin-2-yl)methyl)-N-methyl-N-((5-methyl-1H-pyrazol-3-yl)methyl)benzamide]
16 | 8.52 | 1.6 | 106 | CCC(c1cc(C)[nH]n1)N(C)C(=O)c1ccc(C[C@@H]2CC[C@H]([C@H](O)c3cccnc3)N2)cc1 (stereo partly drawn) [Example 5-H, 4-(((2S,5R)-5-((R)-hydroxy(pyridin-3-yl)methyl)pyrrolidin-2-yl)methyl)-N-methyl-N-(1-(5-methyl-1H-pyrazol-3-yl)propyl)benzamide]
17 | 8.52 | – | 93 | Cc1cc(C(Cc2ccccc2)N(C)C(=O)c2ccc(C[C@@H]3CC[C@H]([C@H](O)c4ccc(Cl)nc4)N3)cc2)[nH]n1 (stereo partly drawn) [Example 6-A, 4-(((2S,5R)-5-((R)-(6-chloropyridin-3-yl)(hydroxy)methyl)pyrrolidin-2-yl)methyl)-N-methyl-N-(1-(5-methyl-1H-pyrazol-3-yl)-2-phenylethyl)benzamide]
18 | 8.70 | – | 102 | CCC(c1cc(C)n[nH]1)N(C)C(=O)c1ccc(C[C@@H]2CC[C@H]([C@H](O)c3ccc(Cl)nc3)N2)cc1 (stereo partly drawn) [Example 5-A, 4-(((2S,5R)-5-((R)-(6-chloropyridin-3-yl)(hydroxy)methyl)pyrrolidin-2-yl)methyl)-N-methyl-N-(1-(5-methyl-1H-pyrazol-3-yl)propyl)benzamide]
